# Patent US8959984B2, “Proteome-wide quantification of small molecule binding to cellular target proteins” (priority 2007, dated 2015)
# Like-named read-outs stand apart in the source and are kept apart here.
# Experiments:
# MAP2K1 (IPI00219604) = target: T1, MAP2K1 (IPI00219604) (Homo sapiens, UniProt Q02750); assay: binding to VI16742 beads (HeLa lysate, SILAC MS)
# T1 construct: endogenous in cells; host or cells: HeLa S3
# Procedure, shortened: (§1)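 Kinases were captured on a resin carrying the broadly selective pyrido[2,3-d]pyrimidine-based kinase inhibitor. Proteins specifically retained by the inhibitor resin were scored as binders.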
# [1] = target: T2, TNIK/ZC2 (TNIK, IPI00514275) (Homo sapiens, UniProt Q9UKE5); assay: binding to VI16742 beads (HeLa lysate, SILAC MS)
# T2 construct: endogenous in cells; host or cells: HeLa S3
# T2 sequence (Q9UKE5 whole entry): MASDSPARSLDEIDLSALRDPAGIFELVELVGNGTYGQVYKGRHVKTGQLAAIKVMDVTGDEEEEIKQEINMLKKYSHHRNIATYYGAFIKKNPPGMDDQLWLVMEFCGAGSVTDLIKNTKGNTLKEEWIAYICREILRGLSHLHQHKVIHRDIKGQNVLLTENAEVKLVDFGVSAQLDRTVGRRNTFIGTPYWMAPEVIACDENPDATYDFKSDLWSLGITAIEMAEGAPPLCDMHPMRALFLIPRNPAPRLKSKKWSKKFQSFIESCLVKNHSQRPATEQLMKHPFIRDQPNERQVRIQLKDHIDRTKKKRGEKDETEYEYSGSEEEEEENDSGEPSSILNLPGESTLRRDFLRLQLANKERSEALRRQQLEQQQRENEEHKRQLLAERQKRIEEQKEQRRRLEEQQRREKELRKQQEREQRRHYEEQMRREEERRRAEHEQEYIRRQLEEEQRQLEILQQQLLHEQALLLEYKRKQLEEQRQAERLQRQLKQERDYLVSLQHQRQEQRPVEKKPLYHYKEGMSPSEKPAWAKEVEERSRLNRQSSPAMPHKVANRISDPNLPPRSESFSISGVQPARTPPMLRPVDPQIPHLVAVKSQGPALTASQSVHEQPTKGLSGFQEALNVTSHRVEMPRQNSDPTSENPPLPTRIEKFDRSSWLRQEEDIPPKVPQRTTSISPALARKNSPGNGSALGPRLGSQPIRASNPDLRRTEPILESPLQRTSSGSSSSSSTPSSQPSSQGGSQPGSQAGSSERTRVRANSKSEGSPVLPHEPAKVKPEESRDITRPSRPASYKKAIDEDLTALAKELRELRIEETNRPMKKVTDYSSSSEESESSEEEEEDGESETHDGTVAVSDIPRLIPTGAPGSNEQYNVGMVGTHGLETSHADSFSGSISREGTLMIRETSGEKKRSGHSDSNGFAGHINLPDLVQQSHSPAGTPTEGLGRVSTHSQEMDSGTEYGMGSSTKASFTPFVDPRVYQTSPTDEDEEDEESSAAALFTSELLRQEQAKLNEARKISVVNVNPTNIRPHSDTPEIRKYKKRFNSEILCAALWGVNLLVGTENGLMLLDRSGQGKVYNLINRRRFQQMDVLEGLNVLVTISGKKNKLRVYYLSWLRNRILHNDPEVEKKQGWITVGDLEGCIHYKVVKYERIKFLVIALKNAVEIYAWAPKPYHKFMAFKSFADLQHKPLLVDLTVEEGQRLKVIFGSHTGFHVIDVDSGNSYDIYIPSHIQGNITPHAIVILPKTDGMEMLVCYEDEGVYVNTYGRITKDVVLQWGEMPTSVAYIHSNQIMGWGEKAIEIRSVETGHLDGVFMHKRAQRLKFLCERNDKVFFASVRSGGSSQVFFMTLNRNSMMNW
# Procedure, shortened: as §1
# ILK (IPI00013219) = target: T3, ILK (IPI00013219) (Homo sapiens, UniProt Q13418); assay: binding to VI16742 beads (HeLa lysate, SILAC MS)
# T3 construct: endogenous in cells; host or cells: HeLa S3
# T3 sequence (Q13418 1-452): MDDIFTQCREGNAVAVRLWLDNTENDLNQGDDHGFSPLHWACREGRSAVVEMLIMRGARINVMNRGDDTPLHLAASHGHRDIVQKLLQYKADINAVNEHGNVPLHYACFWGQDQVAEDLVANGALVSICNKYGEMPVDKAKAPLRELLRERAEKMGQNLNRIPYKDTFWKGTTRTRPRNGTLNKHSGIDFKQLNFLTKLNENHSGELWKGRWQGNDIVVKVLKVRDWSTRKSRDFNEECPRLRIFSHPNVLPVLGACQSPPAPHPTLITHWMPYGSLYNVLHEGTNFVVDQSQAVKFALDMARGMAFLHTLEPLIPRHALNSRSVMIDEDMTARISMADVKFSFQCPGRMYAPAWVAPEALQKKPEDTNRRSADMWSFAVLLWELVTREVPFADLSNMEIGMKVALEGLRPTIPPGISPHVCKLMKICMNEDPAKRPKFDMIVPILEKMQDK
# Procedure, shortened: as §1
# [2] = target: T4, PKACa (PRKACA, IPI00396630) (Homo sapiens, UniProt P17612); assay: binding to VI16742 beads (HeLa lysate, SILAC MS)
# T4 construct: endogenous in cells; host or cells: HeLa S3
# Procedure, shortened: as §1
# CDK6 (IPI00023529) = target: T5, CDK6 (IPI00023529) (Homo sapiens, UniProt Q00534); assay: binding to VI16742 beads (HeLa lysate, SILAC MS)
# T5 construct: endogenous in cells; host or cells: HeLa S3
# T5 sequence (Q00534 whole entry): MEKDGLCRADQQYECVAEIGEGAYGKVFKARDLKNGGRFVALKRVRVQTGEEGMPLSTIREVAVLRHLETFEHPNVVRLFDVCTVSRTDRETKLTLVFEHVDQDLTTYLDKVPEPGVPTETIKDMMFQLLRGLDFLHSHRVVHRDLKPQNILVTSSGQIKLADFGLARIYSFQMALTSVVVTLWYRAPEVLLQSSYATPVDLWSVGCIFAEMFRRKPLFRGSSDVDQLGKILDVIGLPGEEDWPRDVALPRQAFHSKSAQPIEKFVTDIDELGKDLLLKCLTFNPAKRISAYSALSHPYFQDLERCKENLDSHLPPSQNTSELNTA
# Procedure, shortened: as §1
# 2-PDE (IPI00174390) = target: T6, 2-PDE (IPI00174390) (Homo sapiens, UniProt Q6L8Q7); assay: binding to VI16742 beads (HeLa lysate, SILAC MS)
# T6 construct: endogenous in cells; host or cells: HeLa S3 cell lysate
# T6 sequence (Q6L8Q7 43-609): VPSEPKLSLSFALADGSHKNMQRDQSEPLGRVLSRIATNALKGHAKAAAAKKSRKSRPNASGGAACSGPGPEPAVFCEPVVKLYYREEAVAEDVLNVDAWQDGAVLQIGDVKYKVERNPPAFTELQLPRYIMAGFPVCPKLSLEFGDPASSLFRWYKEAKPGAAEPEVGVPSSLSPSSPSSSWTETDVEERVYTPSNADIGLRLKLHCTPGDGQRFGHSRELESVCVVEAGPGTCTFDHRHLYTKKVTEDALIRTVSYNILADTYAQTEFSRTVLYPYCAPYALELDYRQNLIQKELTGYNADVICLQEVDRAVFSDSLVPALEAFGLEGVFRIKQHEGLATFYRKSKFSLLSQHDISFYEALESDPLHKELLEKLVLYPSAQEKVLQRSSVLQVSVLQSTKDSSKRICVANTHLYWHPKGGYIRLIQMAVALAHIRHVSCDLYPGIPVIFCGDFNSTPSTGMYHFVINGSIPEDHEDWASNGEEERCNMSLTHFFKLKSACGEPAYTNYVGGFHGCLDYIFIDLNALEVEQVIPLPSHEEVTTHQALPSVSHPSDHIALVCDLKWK
# Procedure, shortened: as §1
# LOK (STK10, IPI00304742) = target: T7, LOK (STK10, IPI00304742) (Homo sapiens, UniProt O94804); assay: binding to VI16742 beads (HeLa lysate, SILAC MS)
# T7 construct: endogenous in cells; host or cells: HeLa S3
# Procedure, shortened: as §1
# GLO1 (IPI00220766) = target: T8, GLO1 (IPI00220766) (Homo sapiens, UniProt Q04760); assay: binding to VI16742 beads (HeLa lysate, SILAC MS)
# T8 construct: endogenous in cells; host or cells: HeLa S3
# T8 sequence (Q04760 2-184 limits assumed): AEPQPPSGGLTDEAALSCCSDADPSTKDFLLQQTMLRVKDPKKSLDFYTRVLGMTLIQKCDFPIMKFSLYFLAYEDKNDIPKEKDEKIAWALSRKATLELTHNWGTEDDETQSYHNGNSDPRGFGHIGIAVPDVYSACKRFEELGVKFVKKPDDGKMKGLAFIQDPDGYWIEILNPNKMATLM
# Procedure, shortened: as §1
# PDE4D (IPI00002449) = target: T9, PDE4D (IPI00002449) (Homo sapiens, UniProt Q08499); assay: binding to VI16742 beads (HeLa lysate, SILAC MS)
# T9 construct: endogenous in cells; host or cells: HeLa S3 cell lysate
# T9 sequence (Q08499 whole entry): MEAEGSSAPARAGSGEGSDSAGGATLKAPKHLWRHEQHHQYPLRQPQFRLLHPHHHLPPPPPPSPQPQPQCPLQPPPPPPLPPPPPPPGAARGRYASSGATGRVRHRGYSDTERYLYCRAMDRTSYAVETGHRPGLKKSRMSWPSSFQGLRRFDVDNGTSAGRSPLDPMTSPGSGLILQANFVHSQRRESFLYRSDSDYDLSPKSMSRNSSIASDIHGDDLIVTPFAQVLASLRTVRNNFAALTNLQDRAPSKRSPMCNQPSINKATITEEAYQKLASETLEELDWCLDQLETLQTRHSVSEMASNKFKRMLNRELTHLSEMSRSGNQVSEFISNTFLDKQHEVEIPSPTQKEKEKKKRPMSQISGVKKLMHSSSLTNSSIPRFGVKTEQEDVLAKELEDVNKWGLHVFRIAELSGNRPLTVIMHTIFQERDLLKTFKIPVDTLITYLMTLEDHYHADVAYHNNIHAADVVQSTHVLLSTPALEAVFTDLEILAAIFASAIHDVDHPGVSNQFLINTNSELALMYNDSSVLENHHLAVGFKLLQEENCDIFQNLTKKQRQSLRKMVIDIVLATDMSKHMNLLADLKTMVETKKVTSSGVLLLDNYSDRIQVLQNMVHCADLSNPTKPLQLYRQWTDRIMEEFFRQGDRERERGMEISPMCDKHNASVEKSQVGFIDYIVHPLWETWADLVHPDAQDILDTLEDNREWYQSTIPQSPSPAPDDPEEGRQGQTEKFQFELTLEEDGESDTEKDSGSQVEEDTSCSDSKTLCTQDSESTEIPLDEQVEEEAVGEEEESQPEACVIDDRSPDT
# Procedure, shortened: as §1
# [3] = target: p38a (MAPK14, IPI00221141) (Homo sapiens, UniProt Q16539); assay: binding to VI16742 beads (HeLa lysate, SILAC MS)
# p38a (MAPK14, IPI00221141), sequence (Q16539 1-360 isoform Q16539-2): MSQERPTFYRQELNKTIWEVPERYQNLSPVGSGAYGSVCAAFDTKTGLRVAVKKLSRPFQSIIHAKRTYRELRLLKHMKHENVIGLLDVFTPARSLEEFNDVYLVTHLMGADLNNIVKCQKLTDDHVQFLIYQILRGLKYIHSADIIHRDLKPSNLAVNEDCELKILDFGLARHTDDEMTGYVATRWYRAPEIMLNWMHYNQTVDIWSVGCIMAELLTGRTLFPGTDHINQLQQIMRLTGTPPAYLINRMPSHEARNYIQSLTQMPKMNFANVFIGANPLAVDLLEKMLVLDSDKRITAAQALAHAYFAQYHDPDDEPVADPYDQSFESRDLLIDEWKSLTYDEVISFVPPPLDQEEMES
# Procedure, shortened: as §1
# AGL (IPI00328318) = target: T10, AGL (IPI00328318) (Homo sapiens, UniProt P35573); assay: binding to VI16742 beads (HeLa lysate, SILAC MS)
# T10 construct: endogenous in cells; host or cells: HeLa S3
# T10 sequence (P35573 whole entry): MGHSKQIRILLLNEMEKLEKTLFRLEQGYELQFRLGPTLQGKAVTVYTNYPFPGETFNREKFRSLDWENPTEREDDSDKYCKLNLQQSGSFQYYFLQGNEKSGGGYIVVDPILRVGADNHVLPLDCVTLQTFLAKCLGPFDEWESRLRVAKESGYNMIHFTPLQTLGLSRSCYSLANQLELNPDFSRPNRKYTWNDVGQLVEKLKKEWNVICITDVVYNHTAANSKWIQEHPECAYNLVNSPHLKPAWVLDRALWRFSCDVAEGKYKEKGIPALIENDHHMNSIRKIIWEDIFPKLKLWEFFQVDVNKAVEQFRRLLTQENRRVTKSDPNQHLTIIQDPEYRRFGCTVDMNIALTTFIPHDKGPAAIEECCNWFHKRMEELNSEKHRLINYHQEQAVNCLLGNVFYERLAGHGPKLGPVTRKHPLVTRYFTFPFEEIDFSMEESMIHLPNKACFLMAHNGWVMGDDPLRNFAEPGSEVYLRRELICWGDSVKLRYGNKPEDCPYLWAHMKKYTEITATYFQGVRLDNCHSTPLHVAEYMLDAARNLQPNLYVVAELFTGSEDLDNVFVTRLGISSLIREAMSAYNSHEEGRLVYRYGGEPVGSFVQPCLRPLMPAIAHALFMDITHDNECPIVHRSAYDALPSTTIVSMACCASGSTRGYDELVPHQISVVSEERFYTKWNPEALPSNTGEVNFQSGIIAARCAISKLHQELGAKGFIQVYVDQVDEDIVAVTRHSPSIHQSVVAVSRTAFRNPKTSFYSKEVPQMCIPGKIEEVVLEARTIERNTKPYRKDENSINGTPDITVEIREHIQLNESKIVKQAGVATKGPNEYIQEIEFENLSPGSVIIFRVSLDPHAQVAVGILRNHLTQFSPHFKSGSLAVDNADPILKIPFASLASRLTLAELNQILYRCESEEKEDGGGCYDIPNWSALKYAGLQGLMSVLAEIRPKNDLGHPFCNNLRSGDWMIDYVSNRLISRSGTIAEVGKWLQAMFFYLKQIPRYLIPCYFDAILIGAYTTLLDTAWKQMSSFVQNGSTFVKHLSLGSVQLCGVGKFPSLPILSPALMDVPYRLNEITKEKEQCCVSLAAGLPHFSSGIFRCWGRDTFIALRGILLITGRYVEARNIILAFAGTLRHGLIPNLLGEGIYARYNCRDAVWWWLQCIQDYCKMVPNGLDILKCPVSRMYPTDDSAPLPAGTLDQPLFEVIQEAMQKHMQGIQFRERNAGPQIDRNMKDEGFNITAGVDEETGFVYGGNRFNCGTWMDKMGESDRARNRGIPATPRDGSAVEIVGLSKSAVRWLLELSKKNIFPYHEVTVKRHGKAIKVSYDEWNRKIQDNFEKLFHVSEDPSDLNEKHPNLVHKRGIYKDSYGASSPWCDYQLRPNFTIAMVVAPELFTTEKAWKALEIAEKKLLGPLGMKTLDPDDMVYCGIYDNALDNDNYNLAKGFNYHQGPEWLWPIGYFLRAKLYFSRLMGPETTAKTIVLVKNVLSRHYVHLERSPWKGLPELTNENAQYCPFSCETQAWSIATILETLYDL
# Procedure, shortened: as §1
# CK1a = CK1a (Homo sapiens, UniProt P48729); assay: binding to immobilized V16742 (IVA1/IVA2, HeLa lysate, MS)
# CK1a, sequence (P48729 whole entry): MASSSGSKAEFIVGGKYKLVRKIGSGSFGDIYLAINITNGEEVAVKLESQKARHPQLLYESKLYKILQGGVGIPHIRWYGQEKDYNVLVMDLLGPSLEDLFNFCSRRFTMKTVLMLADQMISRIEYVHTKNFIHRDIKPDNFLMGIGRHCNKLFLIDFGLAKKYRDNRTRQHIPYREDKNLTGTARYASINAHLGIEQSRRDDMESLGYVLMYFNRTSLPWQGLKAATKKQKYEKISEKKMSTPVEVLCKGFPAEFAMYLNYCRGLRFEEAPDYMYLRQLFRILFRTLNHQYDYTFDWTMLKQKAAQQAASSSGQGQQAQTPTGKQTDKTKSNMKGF
# [4] = control beads vs first incubation
smiles,measurement,setting,value
CC(C)n1c(=O)ccc2cnc(Nc3ccc(OCCN)cc3)nc21 [V16742],r (5 h/2.5 h INC. TIME),MAP2K1 (IPI00219604); 5 h vs 2.5 h incubation time,1.68
same,rAVERAGE (CTRL/1 INC),MAP2K1 (IPI00219604); [4],0.07
same,Ki,MAP2K1 (IPI00219604); immobilized VI16742,180 µM
same,rAVERAGE (2 INC/1 INC),MAP2K1 (IPI00219604); second vs first incubation,0.78
same,r (5 h/2.5 h INC. TIME),[1]; 5 h vs 2.5 h incubation time,1.27
same,rAVERAGE (CTRL/1 INC),[1]; [4],0.19
same,Ki,[1]; immobilized VI16742,108 µM
same,rAVERAGE (2 INC/1 INC),[1]; second vs first incubation,0.67
same,r (5 h/2.5 h INC. TIME),ILK (IPI00013219); 5 h vs 2.5 h incubation time,1.47
same,rAVERAGE (CTRL/1 INC),ILK (IPI00013219); [4],0.03
same,Ki,ILK (IPI00013219); immobilized VI16742,172 µM
same,rAVERAGE (2 INC/1 INC),ILK (IPI00013219); second vs first incubation,0.77
same,r (3 MG/1 MG LYSATE),[2]; 3 mg vs 1 mg lysate,2.18
same,r (5 h/2.5 h INC. TIME),[2]; 5 h vs 2.5 h incubation time,1.76
same,rAVERAGE (CTRL/1 INC),[2]; [4],0.04
same,Ki,[2]; immobilized VI16742,305 µM
same,rAVERAGE (2 INC/1 INC),[2]; second vs first incubation,0.85
same,r (5 h/2.5 h INC. TIME),CDK6 (IPI00023529); 5 h vs 2.5 h incubation time,0.75
same,rAVERAGE (CTRL/1 INC),CDK6 (IPI00023529); [4],0.10
same,Ki,CDK6 (IPI00023529); immobilized VI16742,119 µM
same,rAVERAGE (2 INC/1 INC),CDK6 (IPI00023529); second vs first incubation,0.70
same,rAVERAGE (CTRL/1 INC),2-PDE (IPI00174390); [4],0.03
same,Ki,2-PDE (IPI00174390); immobilized VI16742,100 µM
same,rAVERAGE (2 INC/1 INC),2-PDE (IPI00174390); second vs first incubation,0.66
same,rAVERAGE (CTRL/1 INC),"LOK (STK10, IPI00304742); [4]",0.07
same,Ki,"LOK (STK10, IPI00304742); immobilized VI16742",164 µM
same,rAVERAGE (2 INC/1 INC),"LOK (STK10, IPI00304742); second vs first incubation",0.76
same,r (5 h/2.5 h INC. TIME),GLO1 (IPI00220766); 5 h vs 2.5 h incubation time,1.39
same,rAVERAGE (CTRL/1 INC),GLO1 (IPI00220766); [4],0.07
same,Ki,GLO1 (IPI00220766); immobilized VI16742,133 µM
same,rAVERAGE (2 INC/1 INC),GLO1 (IPI00220766); second vs first incubation,0.72
same,r (3 MG/1 MG LYSATE),PDE4D (IPI00002449); 3 mg vs 1 mg lysate,2.48
same,r (5 h/2.5 h INC. TIME),PDE4D (IPI00002449); 5 h vs 2.5 h incubation time,1.09
same,rAVERAGE (CTRL/1 INC),PDE4D (IPI00002449); [4],0.05
same,Ki,PDE4D (IPI00002449); immobilized VI16742,102 µM
same,rAVERAGE (2 INC/1 INC),PDE4D (IPI00002449); second vs first incubation,0.66
same,r (5 h/2.5 h INC. TIME),[3]; 5 h vs 2.5 h incubation time,2.16
same,rAVERAGE (CTRL/1 INC),[3]; [4],0.10
same,Ki,[3]; immobilized VI16742,92.8 µM
same,rAVERAGE (2 INC/1 INC),[3]; second vs first incubation,0.64
same,rAVERAGE (CTRL/1 INC),AGL (IPI00328318); [4],0.08
same,Ki,AGL (IPI00328318); immobilized VI16742,218 µM
same,rAVERAGE (2 INC/1 INC),AGL (IPI00328318); second vs first incubation,0.81
CC(C)n1c(=O)ccc2cnc(Nc3ccc(OCCN)cc3)nc21 [compound 16742],Percent bound at 1.87 μM 16742 conc,CK1a; EXPERIMENT 1,6.51%
same,Percent bound at 8.74 μM 16742 conc,CK1a; EXPERIMENT 1,31.78%
same,Percent bound at 52 μM 16742 conc,CK1a; EXPERIMENT 1,60.94%
same,Kd,"CK1a; EXPERIMENT 1, read-out: Kd",20.8 µM
same,Percent bound at 1.87 μM 16742 conc,CK1a; EXPERIMENT 2,5.11%
same,Percent bound at 8.74 μM 16742 conc,CK1a; EXPERIMENT 2,34.46%
same,Percent bound at 52 μM 16742 conc,CK1a; EXPERIMENT 2,83.66%
same,Kd,"CK1a; EXPERIMENT 2, read-out: Kd",16.8 µM
same,Kd,CK1a; read-out: Kd Avg,18.8 µM
